Numbers after ± are expanded uncertainties.
Assay: xn = mol fraction of the nth substance listed
Details: 101 kPa, Liquid, Vibrating tube method

CC(C)(C)O [2-methylpropan-2-ol] + O
Details	mass density [kg/m3]
298.15 K, x1 = 0.6029	813.22 ± 0.15
298.15 K, x1 = 0.6909	803.57 ± 0.16
298.15 K, x1 = 0.726	800.1 ± 0.16
298.15 K, x1 = 0.7999	794.07 ± 0.16
298.15 K, x1 = 0.8711	788.3 ± 0.17
298.15 K, x1 = 0.9183	785.07 ± 0.17
298.15 K, x1 = 0.9574	782.74 ± 0.17
298.15 K, x1 = 0.9652	782.29 ± 0.17
298.15 K, x1 = 0.9795	781.56 ± 0.17
298.15 K, x1 = 0.9873	781.18 ± 0.17
298.15 K, x1 = 0.9935	780.83 ± 0.17
298.15 K, x1 = 0.9963	780.69 ± 0.17
299.15 K, x1 = 0.9821	780.36 ± 0.17
299.15 K, x1 = 0.9944	779.76 ± 0.17
299.15 K, x1 = 0.996	779.69 ± 0.17
299.15 K, x1 = 1	779.48 ± 0.17
303.15 K, x1 = 0.9821	776.31 ± 0.17
303.15 K, x1 = 0.9944	775.66 ± 0.17
303.15 K, x1 = 0.996	775.58 ± 0.17
303.15 K, x1 = 1	775.39 ± 0.17
308.15 K, x1 = 0.00089	993.36 ± 0.11
308.15 K, x1 = 0.00146	992.96 ± 0.11
308.15 K, x1 = 0.00269	992.08 ± 0.11
308.15 K, x1 = 0.00403	991.15 ± 0.11
308.15 K, x1 = 0.00513	990.39 ± 0.11
308.15 K, x1 = 0.00761	988.7 ± 0.11
308.15 K, x1 = 0.01405	984.86 ± 0.11
308.15 K, x1 = 0.0248	978.65 ± 0.11
308.15 K, x1 = 0.03494	973.48 ± 0.11
308.15 K, x1 = 0.04241	969.43 ± 0.11
308.15 K, x1 = 0.05218	963.7 ± 0.12
308.15 K, x1 = 0.05887	959.67 ± 0.12
308.15 K, x1 = 0.06973	953.09 ± 0.12
308.15 K, x1 = 0.1125	928.56 ± 0.12
308.15 K, x1 = 0.1566	906.33 ± 0.13
308.15 K, x1 = 0.208	886.22 ± 0.13
308.15 K, x1 = 0.2408	874.67 ± 0.14
308.15 K, x1 = 0.3023	856.97 ± 0.14
308.15 K, x1 = 0.3451	846.68 ± 0.14
308.15 K, x1 = 0.4045	834.17 ± 0.15
308.15 K, x1 = 0.4225	830.99 ± 0.15
308.15 K, x1 = 0.4653	823.8 ± 0.15
308.15 K, x1 = 0.5344	812.83 ± 0.15
308.15 K, x1 = 0.6029	803.86 ± 0.16
308.15 K, x1 = 0.6909	794.03 ± 0.16
308.15 K, x1 = 0.726	790.54 ± 0.16
308.15 K, x1 = 0.7999	784.37 ± 0.17
308.15 K, x1 = 0.8711	778.45 ± 0.17
308.15 K, x1 = 0.9183	775.09 ± 0.17
308.15 K, x1 = 0.9574	772.63 ± 0.17
308.15 K, x1 = 0.9652	772.13 ± 0.17
308.15 K, x1 = 0.9795	771.34 ± 0.17
308.15 K, x1 = 0.9821	771.14 ± 0.17
308.15 K, x1 = 0.9944	770.47 ± 0.17
308.15 K, x1 = 0.996	770.38 ± 0.17
308.15 K, x1 = 1	770.14 ± 0.17
313.15 K, x1 = 0.9821	765.88 ± 0.18
313.15 K, x1 = 0.9944	765.18 ± 0.18
313.15 K, x1 = 0.996	765.09 ± 0.18
313.15 K, x1 = 1	764.84 ± 0.18
318.15 K, x1 = 0.9821	760.53 ± 0.18
318.15 K, x1 = 0.9944	759.8 ± 0.2
318.15 K, x1 = 0.996	759.71 ± 0.18
318.15 K, x1 = 1	759.46 ± 0.18
323.15 K, x1 = 0.00089	987.36 ± 0.11
323.15 K, x1 = 0.00146	986.95 ± 0.11
323.15 K, x1 = 0.00269	986.1 ± 0.11
323.15 K, x1 = 0.00403	985.16 ± 0.11
323.15 K, x1 = 0.00513	984.39 ± 0.11
323.15 K, x1 = 0.00761	982.75 ± 0.11
323.15 K, x1 = 0.01405	978.38 ± 0.11
323.15 K, x1 = 0.0248	971.52 ± 0.11
323.15 K, x1 = 0.03494	965.43 ± 0.12
323.15 K, x1 = 0.04241	960.77 ± 0.12
323.15 K, x1 = 0.05218	954.06 ± 0.12
323.15 K, x1 = 0.05887	949.57 ± 0.12
323.15 K, x1 = 0.06973	942.66 ± 0.12
323.15 K, x1 = 0.1125	916.92 ± 0.13
323.15 K, x1 = 0.1566	893.97 ± 0.13
323.15 K, x1 = 0.208	873.34 ± 0.14
323.15 K, x1 = 0.2408	861.46 ± 0.14
323.15 K, x1 = 0.3023	843.45 ± 0.14
323.15 K, x1 = 0.3451	832.95 ± 0.15
323.15 K, x1 = 0.4045	820.18 ± 0.15
323.15 K, x1 = 0.4225	816.91 ± 0.15
323.15 K, x1 = 0.4653	809.6 ± 0.15
323.15 K, x1 = 0.5344	798.37 ± 0.16
323.15 K, x1 = 0.6029	789.18 ± 0.16
323.15 K, x1 = 0.6909	779.13 ± 0.17
323.15 K, x1 = 0.726	775.51 ± 0.17
323.15 K, x1 = 0.7999	769.18 ± 0.17
323.15 K, x1 = 0.8711	763 ± 0.17
323.15 K, x1 = 0.9183	759.52 ± 0.18
323.15 K, x1 = 0.9574	756.76 ± 0.18
323.15 K, x1 = 0.9652	756.21 ± 0.18
323.15 K, x1 = 0.9795	755.31 ± 0.18
323.15 K, x1 = 0.9821	755.09 ± 0.18
323.15 K, x1 = 0.9944	754.31 ± 0.18
323.15 K, x1 = 0.996	754.22 ± 0.18
323.15 K, x1 = 1	753.94 ± 0.18
333.15 K, x1 = 0.00089	982.51 ± 0.11
333.15 K, x1 = 0.00146	982.1 ± 0.11
333.15 K, x1 = 0.00269	981.23 ± 0.11
333.15 K, x1 = 0.00403	980.3 ± 0.11
333.15 K, x1 = 0.00513	979.52 ± 0.11
333.15 K, x1 = 0.00761	977.87 ± 0.11
333.15 K, x1 = 0.01405	973.36 ± 0.12
333.15 K, x1 = 0.0248	965.88 ± 0.12
333.15 K, x1 = 0.03494	959.46 ± 0.12
333.15 K, x1 = 0.04241	954.72 ± 0.12
333.15 K, x1 = 0.05218	947.17 ± 0.12
333.15 K, x1 = 0.05887	942.74 ± 0.12
333.15 K, x1 = 0.06973	935.49 ± 0.12
333.15 K, x1 = 0.1125	908.96 ± 0.13
333.15 K, x1 = 0.1566	885.44 ± 0.13
333.15 K, x1 = 0.208	864.42 ± 0.14
333.15 K, x1 = 0.2408	852.37 ± 0.14
333.15 K, x1 = 0.3023	834.38 ± 0.15
333.15 K, x1 = 0.3451	823.51 ± 0.15
333.15 K, x1 = 0.4045	810.41 ± 0.15
333.15 K, x1 = 0.4225	807.23 ± 0.15
333.15 K, x1 = 0.4653	799.78 ± 0.16
333.15 K, x1 = 0.5344	788.31 ± 0.16
333.15 K, x1 = 0.6029	778.96 ± 0.16
333.15 K, x1 = 0.6909	768.71 ± 0.17
333.15 K, x1 = 0.726	765.01 ± 0.17
333.15 K, x1 = 0.7999	758.52 ± 0.17
333.15 K, x1 = 0.8711	752.17 ± 0.18
333.15 K, x1 = 0.9183	748.6 ± 0.18
333.15 K, x1 = 0.9574	745.7 ± 0.18
333.15 K, x1 = 0.9652	745.12 ± 0.18
333.15 K, x1 = 0.9795	744.15 ± 0.18
333.15 K, x1 = 0.9821	743.92 ± 0.18
333.15 K, x1 = 0.9944	743.11 ± 0.18
333.15 K, x1 = 0.996	743.02 ± 0.18
333.15 K, x1 = 1	742.7 ± 0.2
348.15 K, x1 = 0.00089	974.22 ± 0.11
348.15 K, x1 = 0.00146	973.75 ± 0.11
348.15 K, x1 = 0.00269	973.04 ± 0.11
348.15 K, x1 = 0.00403	972.25 ± 0.11
348.15 K, x1 = 0.00513	971.5 ± 0.11
348.15 K, x1 = 0.00761	969.81 ± 0.12
348.15 K, x1 = 0.01405	965 ± 0.12
348.15 K, x1 = 0.0248	957.02 ± 0.12
348.15 K, x1 = 0.03494	949.37 ± 0.12
348.15 K, x1 = 0.04241	944.24 ± 0.12
348.15 K, x1 = 0.05218	936.2 ± 0.12
348.15 K, x1 = 0.05887	931.84 ± 0.12
348.15 K, x1 = 0.06973	924.4 ± 0.12
348.15 K, x1 = 0.1125	896.84 ± 0.13
348.15 K, x1 = 0.1566	872.83 ± 0.13
348.15 K, x1 = 0.208	850.42 ± 0.14
348.15 K, x1 = 0.2408	838.25 ± 0.14
348.15 K, x1 = 0.3023	820.05 ± 0.15
348.15 K, x1 = 0.3451	808.66 ± 0.15
348.15 K, x1 = 0.4045	795.17 ± 0.16
348.15 K, x1 = 0.4225	792.36 ± 0.16
348.15 K, x1 = 0.4653	784.18 ± 0.16
348.15 K, x1 = 0.5344	772.8 ± 0.16
348.15 K, x1 = 0.6029	763.18 ± 0.17
348.15 K, x1 = 0.6909	752.22 ± 0.17
348.15 K, x1 = 0.726	748.55 ± 0.17
348.15 K, x1 = 0.7999	741.72 ± 0.18
348.15 K, x1 = 0.8711	734.96 ± 0.18
348.15 K, x1 = 0.9183	731.4 ± 0.18
348.15 K, x1 = 0.9574	728.29 ± 0.18
348.15 K, x1 = 0.9652	727.67 ± 0.18
348.15 K, x1 = 0.9795	726.63 ± 0.19
348.15 K, x1 = 0.9821	726.41 ± 0.19
348.15 K, x1 = 0.9944	725.51 ± 0.19
348.15 K, x1 = 0.996	725.4 ± 0.2
348.15 K, x1 = 1	725.05 ± 0.19
